# Data: ChEMBL document CHEMBL1201862, “PubChem BioAssay data set” (2004)
#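 Cells were grown in 96-well plates and exposed to each compound for 48 hours at five concentrations; endpoints were interpolated linearly between bracketing concentrations, or set to the highest concentration if not reached. GI50 = concentration required for 50% inhibition of growth.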 The source made the active and inactive calls. Rule as the data show it: active = GI50 up to about 1.1 µM and inactive = higher.
# How the values were obtained:
# Test in all cases: NCI tumour cell line growth inhibition, 48 h
# SW-620 = system: SW-620
# HCC 2998 = system: HCC 2998
# HT-29 = system: HT-29
# HCT-15 = system: HCT-15
# CAKI-1 = system: CAKI-1
# NCI-H522 = system: NCI-H522
# RPMI-8226 = system: RPMI-8226
# COLO 205 = system: COLO 205
# HOP-62 = system: HOP-62
# Malme-3M = system: Malme-3M
# HCT-116 = system: HCT-116
# OVCAR-8 = system: OVCAR-8
# NCI-H226 = system: NCI-H226
# SK-MEL-5 = system: SK-MEL-5
# 786-0 = system: 786-0
# SNB-75 = system: SNB-75
# TK-10 = system: TK-10
# T47D = system: T47D
# RXF 393 = system: RXF 393
Compound,GI50 (SW-620),GI50 (HCC 2998),GI50 (HT-29),GI50 (HCT-15) [µM],GI50 (CAKI-1),GI50 (NCI-H522),GI50 (RPMI-8226),GI50 (COLO 205),GI50 (HOP-62),GI50 (Malme-3M),GI50 (HCT-116),GI50 (OVCAR-8),GI50 (NCI-H226),GI50 (SK-MEL-5),GI50 (786-0),GI50 (SNB-75),GI50 (TK-10),GI50 (T47D),GI50 (RXF 393)
COc1ccc2c(c1)CCc1c-2n(CCN(C)C)c2ccc(OC)cc12,5.37 µM (inactive),3.09 µM (inactive),3.44 µM (inactive),11.4,22.1 µM (inactive),10 µM (inactive),4.92 µM (inactive),4.38 µM (inactive),16.1 µM (inactive),19.7 µM (inactive),5.33 µM (inactive),20.7 µM (inactive),3.03 µM (inactive),12.4 µM (inactive),27.2 µM (inactive),21.2 µM (inactive),24.2 µM (inactive),15.5 µM (inactive),
O=C(O)c1ccccc1C(=O)OCC1CCCN2CCCCC12 (configuration not stated),> 100 µM (inactive),> 100 µM (inactive),> 100 µM (inactive),> 100,> 100 µM (inactive),,> 100 µM (inactive),> 100 µM (inactive),> 100 µM (inactive),> 100 µM (inactive),> 100 µM (inactive),> 100 µM (inactive),> 100 µM (inactive),> 100 µM (inactive),> 100 µM (inactive),> 100 µM (inactive),> 100 µM (inactive),> 100 µM (inactive),> 100 µM (inactive)
COc1ccc(NC(=O)C(=O)C(CC2C(=O)NC(=S)NC2=O)C(=O)c2ccc3ccccc3c2)c([N+](=O)[O-])c1 (configuration not stated),> 100 µM (inactive),> 100 µM (inactive),> 100 µM (inactive),> 100,> 100 µM (inactive),> 100 µM (inactive),76.9 µM (inactive),> 100 µM (inactive),,,> 100 µM (inactive),> 100 µM (inactive),> 100 µM (inactive),> 100 µM (inactive),> 100 µM (inactive),> 100 µM (inactive),> 100 µM (inactive),> 100 µM (inactive),
CC(C)(C)OC(=O)N1CCC23CCCC2C(=O)CC=C13 (configuration not stated),> 100 µM (inactive),> 100 µM (inactive),> 100 µM (inactive),> 100,> 100 µM (inactive),66.4 µM (inactive),,70.8 µM (inactive),> 100 µM (inactive),> 100 µM (inactive),72.4 µM (inactive),> 100 µM (inactive),> 100 µM (inactive),> 100 µM (inactive),> 100 µM (inactive),> 100 µM (inactive),> 100 µM (inactive),> 100 µM (inactive),> 100 µM (inactive)
COc1ccc(Nc2[nH]c(C(C)=O)c(N)c2C(=S)Nc2ccccc2)cc1,> 100 µM (inactive),28.2 µM (inactive),35.3 µM (inactive),35.6,87.3 µM (inactive),36.6 µM (inactive),,21.9 µM (inactive),> 100 µM (inactive),50.6 µM (inactive),38.6 µM (inactive),60.8 µM (inactive),36.1 µM (inactive),37.2 µM (inactive),42.5 µM (inactive),> 100 µM (inactive),68.9 µM (inactive),56.8 µM (inactive),16.6 µM (inactive)
CCCC[S+]([O-])CCC(N)C(=O)O (configuration not stated),> 100 µM (inactive),> 100 µM (inactive),> 100 µM (inactive),> 100,> 100 µM (inactive),> 100 µM (inactive),,> 100 µM (inactive),> 100 µM (inactive),1.94 µM (inactive),> 100 µM (inactive),> 100 µM (inactive),> 100 µM (inactive),> 100 µM (inactive),> 100 µM (inactive),> 100 µM (inactive),> 100 µM (inactive),> 100 µM (inactive),> 100 µM (inactive)
O=C1/C(=N/c2ccc(Nc3ccccc3)cc2)Oc2ccccc21,2.36 µM (inactive),8.26 µM (inactive),2.2 µM (inactive),3.3,1.85 µM (inactive),1.83 µM (inactive),,1.65 µM (inactive),5.57 µM (inactive),2.99 µM (inactive),1.67 µM (inactive),2.64 µM (inactive),3.31 µM (inactive),4.68 µM (inactive),1.88 µM (inactive),2.15 µM (inactive),3.84 µM (inactive),3 µM (inactive),2.51 µM (inactive)
CC1(C)N=c2c(ncn2CCO)=C(C(N)=O)N1,> 100 µM (inactive),> 100 µM (inactive),> 100 µM (inactive),> 100,> 100 µM (inactive),> 100 µM (inactive),> 100 µM (inactive),> 100 µM (inactive),> 100 µM (inactive),> 100 µM (inactive),> 100 µM (inactive),> 100 µM (inactive),> 100 µM (inactive),> 100 µM (inactive),> 100 µM (inactive),,> 100 µM (inactive),> 100 µM (inactive),> 100 µM (inactive)
O=C1C(OC(=O)c2ccccc2)=C(c2ccc(O)cc2)C(=O)C(OC(=O)c2ccccc2)=C1c1ccc(O)cc1,> 100 µM (inactive),40.3 µM (inactive),> 100 µM (inactive),> 100,> 100 µM (inactive),> 100 µM (inactive),> 100 µM (inactive),> 100 µM (inactive),,> 100 µM (inactive),> 100 µM (inactive),> 100 µM (inactive),> 100 µM (inactive),> 100 µM (inactive),> 100 µM (inactive),78.5 µM (inactive),> 100 µM (inactive),> 100 µM (inactive),
CC1(C)C(C(=O)OC(C#N)c2cccc(OCC(=O)OCc3ccccc3)c2)C1(C)C (configuration not stated),70.3 µM (inactive),,> 100 µM (inactive),> 100,> 100 µM (inactive),> 100 µM (inactive),,> 100 µM (inactive),> 100 µM (inactive),> 100 µM (inactive),40.4 µM (inactive),35.2 µM (inactive),> 100 µM (inactive),> 100 µM (inactive),> 100 µM (inactive),41.5 µM (inactive),> 100 µM (inactive),45.8 µM (inactive),> 100 µM (inactive)
CCCN(CCC)C(=S)N/N=C/c1cccc(C)n1,0.054 µM (active),,< 0.01 µM (active),0.0438,0.382 µM (active),0.0194 µM (active),0.0239 µM (active),< 0.01 µM (active),0.195 µM (active),0.697 µM (active),< 0.01 µM (active),0.0217 µM (active),0.129 µM (active),0.129 µM (active),0.0237 µM (active),0.261 µM (active),0.142 µM (active),,0.151 µM (active)
Cc1cnc2nc(-c3ccc(Cl)cc3)cc(O)c2c1,4.06 µM (inactive),11.4 µM (inactive),3.27 µM (inactive),2.07,5.33 µM (inactive),5.47 µM (inactive),3.88 µM (inactive),4.31 µM (inactive),5.86 µM (inactive),8.61 µM (inactive),3.84 µM (inactive),9.14 µM (inactive),13.2 µM (inactive),2.49 µM (inactive),6.17 µM (inactive),5.14 µM (inactive),43.2 µM (inactive),43 µM (inactive),
O=C(c1ccc(Cl)cc1Cl)N(C(=O)N1CCC(c2ccccc2)CC1)c1ccccc1,> 100 µM (inactive),> 100 µM (inactive),> 100 µM (inactive),> 100,> 100 µM (inactive),,47.9 µM (inactive),43.3 µM (inactive),> 100 µM (inactive),,49.4 µM (inactive),> 100 µM (inactive),> 100 µM (inactive),37.3 µM (inactive),> 100 µM (inactive),> 100 µM (inactive),,53.7 µM (inactive),
O=C1CSC(c2c[nH]c3ccccc23)N1c1ccc(Cl)cc1 (configuration not stated),> 100 µM (inactive),> 100 µM (inactive),> 100 µM (inactive),> 100,,,> 100 µM (inactive),> 100 µM (inactive),> 100 µM (inactive),,> 100 µM (inactive),> 100 µM (inactive),> 100 µM (inactive),> 100 µM (inactive),> 100 µM (inactive),37.1 µM (inactive),> 100 µM (inactive),> 100 µM (inactive),> 100 µM (inactive)
COC(=O)c1c(C)nc(C)c(NO)c1-c1ccccc1C(F)(F)F,16 µM (inactive),> 100 µM (inactive),18.4 µM (inactive),16.1,16.2 µM (inactive),17.2 µM (inactive),15.1 µM (inactive),27.1 µM (inactive),> 100 µM (inactive),16.9 µM (inactive),16.3 µM (inactive),18.5 µM (inactive),20.2 µM (inactive),41.7 µM (inactive),16.4 µM (inactive),,17.1 µM (inactive),28 µM (inactive),16.7 µM (inactive)
CC1(C)C(OC(=O)c2ccccc2)C[C@]23CCC[C@](C)(C[C@@H](O)C12)C3 (some centres not stated),13.9 µM (inactive),,16.1 µM (inactive),18.4,19.9 µM (inactive),15.5 µM (inactive),23.9 µM (inactive),17.5 µM (inactive),24 µM (inactive),19.2 µM (inactive),13.9 µM (inactive),16.7 µM (inactive),18.8 µM (inactive),13.1 µM (inactive),19.6 µM (inactive),18.9 µM (inactive),29.5 µM (inactive),19.9 µM (inactive),
